From PubChem BioAssay (NCI)
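Following 48 hours of exposure in 96-well plates, responses at five concentrations were used to interpolate endpoints linearly. TGI denotes the concentration required for complete inhibition of growth.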

Assays:
Experiment in all cases: NCI anticancer screen, dose series, 48 h
[1] = system: SK-OV-3 ovarian
[2] = system: M19-MEL melanoma
[3] = system: LXFL 529 NSCLC
[4] = system: LOX IMVI melanoma
[5] = system: IGROV1 ovarian
[6] = system: HOP-62 NSCLC
[7] = system: HOP-92 NSCLC
[8] = system: SNB-78 CNS
[9] = system: DLD-1 colon
[10] = system: ACHN renal
[11] = system: CCRF-CEM leukemia
[12] = system: MDA-MB-231 breast

Compound	TGI [1] [µM]	TGI [2] [µM]	TGI [3] [µM]	TGI [4] [µM]	TGI [5] [µM]	TGI [6] [µM]	TGI [7] [µM]	TGI [8] [µM]	TGI [9] [µM]	TGI [10] [µM]	TGI [11] [µM]	TGI [12] [µM]
COC(=O)C(C(=O)C(=O)Nc1ccccc1OC)c1csc(-n2nc(-c3ccccc3)cc2-c2ccccc2)n1 (configuration not stated)	> 100	> 100	> 100	> 100	> 100	> 100	> 100	> 100	> 100	> 100	> 100	
Fc1cccc(F)c1C1SCc2nc3ccccc3n21 (configuration not stated)	> 100	> 100	> 100	> 100	> 100	> 100	95.3	> 100	> 100	> 100	> 100	
O=C1C=C(Br)C(=O)C(Br)=C1	> 100	> 89.6	> 100	> 31.6	> 100	> 100	> 100	> 100	> 100	> 100	> 81.6	
CCC(=S)N(C)O	> 100	> 51.7	> 100	51.8	> 37	> 95.3	> 100	> 100	> 100	> 100	12.3	> 100
CC(=O)O[C@H]1CCC2[C@@H]3CCC4C(=O)c5oncc5C[C@]4(C)C3CC[C@@]21C (some centres not stated)	> 100	> 100	> 100	> 100	> 100	> 100	> 100	> 100	> 100	> 100	> 100	
COC(=O)C1CCc2c(OC)ccc(OC)c2C1=O (configuration not stated)	> 100	> 100	> 100	> 100	> 100	> 100	> 100	> 100	> 100	> 100	> 100	
Cc1oc2c(c1C(=O)c1ccccc1)C(=O)c1ccccc1C2=O	20.7	4.93	3.1	7.52	15.9	22.4	4.65	> 100	10	15.3	5.76	7.07
C=C(CO)CC(O)c1ccccc1 (configuration not stated)	> 100	> 100	> 100	> 100	> 100	> 100	> 100	> 100	> 100	> 100	> 100	
C=C1CC2(OC1=O)c1ccccc1CCc1ccccc12	31.9	3.36	3.07	2.9	14.1	44	3.14	4.43	3.4	3.33	2.49	21.2
